From patent US12589087B2, “Enantiomer selective action on neurotransmission” (The Board of Trustees of the Leland Stanford Junior …, priority 2021, dated 2026) come the findings set out here.

Data set [1] is described as follows: Pharmacokinetics of 2MeGlu and 2MeGln in mice. The format is in vivo. Particulars: 100 mg/kg IP, mouse brain; for time of peak brain concentration: for rac-2MeGln: 2MeGln. Here is the method:
C57BL/6 mice (Jackson Laboratory cat. no. 000664) were administered 100 mg/kg IP. […] Whole brain was promptly dissected and one half frozen at −80° C. until homogenization in ice cold PBS (pH 7.4) using a probe ultrasonic homogenizer (Branson Sonifier 450, Power: 5, Cycle: 30%, time: 10 s) on ice. The lysate was centrifuged (2,500 g for 15 min at 4° C.) and the supernatant was assayed using Pierce BCA Protein Assay Kit (23225) using BioTek Epoch plate spectrophotometer by recording absorbance at 562 nm. Two or three 10 μL aliquots of the homogenate were transferred to a 96 well plate and extracted with 190 μL of 60% acetonitrile in water containing 10 μM GABA-d6 or 10 μM Glu-d5 and Gln-d5 as internal standards. 40 μL aliquots of the extracts were then diluted with 120 μL of acetonitrile and prepared for LC-MS/MS analysis. Brain and serum half-lives were calculated using the ‘PKNCA’ package for R. Endogenous levels of Glu, Gln and GABA were determined in the brains of mice used in the pharmacokinetics experiment. MRM transitions specific for Glu, Gln and GABA were monitored simultaneously.

The next data set relates to C57Bl/6 mice. As to the kind of experiment: Chronic dosing behavioral tests (activity chamber, elevated plus maze, Y maze, Morris water maze, fear conditioning). Type of data set: in vivo, mouse. Particulars: for body weight, activity chamber distance, elevated plus maze open arm time, Y maze alternation, Morris water maze learning / mortality: 10 mg/kg/day IP for a month; for fear conditioning, contextual recall on Day 2: 10 mg/kg/day IP, week 4. Here is the method:
Dosing: (R)-2MeGlu (10 mg/kg), (S)-2MeGlu (10 mg/kg), rac-2MeGln (10 mg/kg), and vehicle (PBS) were administered IP at 10 ml/kg dosing volume daily. The first dose was administered one week prior to behavioral tests and continued for four weeks during the behavioral testing.
Activity Chamber Open Field: The assessment took place in an Open Field Activity Arena as described above for 30 min. The Arena was cleaned with a 1% Virkon solution at the end of the trial. Activity chamber open field assessment was conducted after one week of exposure to compounds or vehicle.
Elevated Plus Maze: The maze was made of acrylonitrile butadiene styrene (ABS) plastic and had two open arms and two close arms that were 30 cm long and 5 cm wide. The center area where the open and close arms meet was 5 cm×5 cm. The open arms had 2 mm lips at the edges, and the closed arms had 15 cm opaque walls. The maze was elevated 50 cm and surrounded by privacy blinds during the test. The maze was illuminated to 7 lux using red light throughout the test. Each mouse was released in the center of the maze and given 5 min to explore the maze. Duration and frequency in each zone of the maze were recorded using Ethovision (Noldus Information Technology, Wageningen, the Netherlands) tracking software. The maze was cleaned with a 1% Virkon solution at the end of the trial. Elevated plus maze was conducted after one week of exposure to compounds or vehicle.
Y Maze Spontaneous Alternation: The Y maze is made of plastic with 3 arms in a “Y” shape. The arms are labelled as Arm A, B, and C; Arm A is 20.32 cm (L)×5 cm (W) 12.7 cm (H), Arm B and C are 15.24 cm (L)×5 cm (W), and 12.7 cm (H). The test is based on the willingness of rodents to explore a novel environment and designed to measure spontaneous alternations in rodents. Each mouse was placed in the center of the maze facing Arm B. The first entry was excluded from data analysis because the animals were led to the initial arm entry by the experimenter. Using an overhead camera, the number of arm entries and alternations were recorded for 5 minutes. An arm entry is when all four paws enter into a new arm of the maze. The apparatus was cleaned with 1% Virkon. Parameters recorded were % alternation and the total number of entries into arms. The Y maze test was conducted after two weeks of exposure to compounds or vehicle.
Morris Water Maze: During the Hidden Platform Training (HPT), mice were given 2 trials, with 1-minute inter-trial-intervals (ITIs) in a circular water tank (172 cm diameter) filled with opaque water at 22.0±1.5° C. Nontoxic tempera paint was used to make the water opaque. A circular platform (17 cm diameter) was submerged 1 cm below the water's surface and placed in one of the four quadrants of the pool (Quadrant 2). The release locations into the pool were randomly chosen to prevent spatial bias and the platform was also relocated during reversal training. We conducted 3 days of training with 2 trials each day for a total of the 6 trials prior to probe 1 (Days 1 to 3). Specifically, mice were given a maximum of 60 s to find the submerged platform per trial. […] After remaining on the platform for 15 s, mice were removed from the platform and placed in a dry cage with a paper towel. This process was repeated for 3 days. On the following day (˜24 hours after the last training trial), the platform was removed from the pool, and a 60 s probe trial was conducted. After acquiring the data for the probe trial, the platform was replaced at the same location, and the mice were given additional two trials of training. Three days (˜72 hours) after the last training trial, a second probe trial was conducted. The platform was relocated to a new quadrant (Quadrant 4) after the second probe trial, and the animals were trained in Reversal Hidden Platform Training (RHPT). The procedures for RHPT were identical to HPT and were conducted for 3 days (Days 7 to 9). A third probe trial was conducted on the following day (˜24 hr). […]

What is called half-life is how long it takes for the measured level to halve. A high value points to slow decline.

The structures appear in SMILES notation.

On to `C[C@@](N)(CCC(=O)O)C(=O)O` [(R)-2MeGlu, (R)-2-methylglutamic acid], for which, in data set [1], the maximum brain concentration was found to be 30 pmol/mg protein and the “time of peak brain concentration” value is not above 5 min. The molecule also had a half-life in data set [1] (C57BL/6) of approximately 1.17 h. In the data set on C57Bl/6 mice, the “body weight, activity chamber distance, elevated plus maze open arm time, Y maze alternation, Morris water maze learning” value (“body weight, activity chamber distance” for short) is “no significant effect of treatment”; the mortality result is listed as “no mortality”; the “fear conditioning, contextual recall on Day 2” value (shortened to “fear conditioning”) is “no significant effect of treatments”.

Regarding `CC(N)(CCC(N)=O)C(=O)O` (racemic) [rac-2MeGln, rac-2-methylglutamine], in data set [1], the “time of peak brain concentration” value is recorded as 25 min. Also, in the data set with C57Bl/6 mice, the “body weight, activity chamber distance” value is “no significant effect of treatment”; the mortality entry is reported as “no mortality”; the “fear conditioning” value is listed as “no significant effect of treatments”.

With `C[C@](N)(CCC(=O)O)C(=O)O` [(S)-2MeGlu, (S)-2-methylglutamic acid], in data set [1], the maximum brain concentration worked out at 50 pmol/mg protein and the “time of peak brain concentration” value was found to be 25 min. Moreover, in the data set with C57Bl/6 mice, the “body weight, activity chamber distance” value was “no significant effect of treatment”; the mortality result is given as “no mortality”; the “fear conditioning” value is recorded as “no significant effect of treatments”.
